No end group written: not given here.
Assays:
P. aeruginosa PAO1 = assay: microbe, parasite or virus in culture; settings: for MIC P. aeruginosa, 12.5% MHB / MIC P. aeruginosa, Full MHB: P. aeruginosa PAO1, 16–20 h at 37 °C; for MIC P. aeruginosa, 12.5% MHB: 12.5% Müller–Hinton medium; for MIC P. aeruginosa, Full MHB: full Müller–Hinton medium; for MIC P. aeruginosa PAO1: supplement CSV
Procedure, shortened: (§1)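 Read-out was visible growth after MTT addition, the MIC being the lowest inhibitory peptide concentration. Bacteria grown to log phase in LB were exposed in MH medium to peptide from 64 μg/mL in twofold dilutions for 15-18h at 37°C.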

S. aureus COL (MRSA) = assay: microbe, parasite or virus in culture; settings: for MIC S. aureus, 12.5% MHB / MIC S. aureus, Full MHB: S. aureus COL (MRSA), 16–20 h at 37 °C; for MIC S. aureus, 12.5% MHB: 12.5% Müller–Hinton medium; for MIC S. aureus, Full MHB: full Müller–Hinton medium; for MIC S. aureus COL (MRSA): supplement CSV
Procedure, shortened: as §1

E. coli W3110 = assay: microbe, parasite or virus in culture; settings: for MIC E. coli, 12.5% MHB / MIC E. coli, Full MHB: E. coli W3110, 16–20 h at 37 °C, broth microdilution; for MIC E. coli, 12.5% MHB: 12.5% Müller–Hinton medium; for MIC E. coli, Full MHB: full Müller–Hinton medium; for MIC E. coli W3110: supplement CSV
Procedure, shortened: as §1

A. baumannii ATCC19606 = assay: microbe, parasite or virus in culture; settings: for MIC A. baumannii, 12.5% MHB / MIC A. baumannii, Full MHB: A. baumannii ATCC19606, 16–20 h at 37 °C; for MIC A. baumannii, 12.5% MHB: 12.5% Müller–Hinton medium; for MIC A. baumannii, Full MHB: full Müller–Hinton medium; for MIC A. baumannii ATCC19606: supplement CSV
Procedure, shortened: as §1

K. pneumoniae NCTC 418 = assay: microbe, parasite or virus in culture; settings: for MIC K. pneumoniae, 12.5% MHB / MIC K. pneumoniae, Full MHB: K. pneumoniae NCTC 418, 16–20 h at 37 °C; for MIC K. pneumoniae, 12.5% MHB: 12.5% Müller–Hinton medium; for MIC K. pneumoniae, Full MHB: full Müller–Hinton medium; for MIC K. pneumoniae NCTC418: supplement CSV
Procedure, shortened: as §1

human red blood cells = assay: Hemolysis assay, minimum hemolytic concentration; settings: for Haemolysis on hRBC, MHC: 2.5% human red blood cells (final) in 10 mM phosphate, 150 mM NaCl, pH 7.4, 25 °C, 4 h, visual inspection; for MHC human red blood cells: supplement CSV

VDKPPYLPRPRPPRRIYNR [sr3Nterm-Onc] (VDKPPYLPRPRPPRRIYNR-NH2; also: residues 1-3 stereorandomized (1:1 L/D mixture))
MIC P. aeruginosa, 12.5% MHB (P. aeruginosa PAO1): 16 µg/mL
MIC P. aeruginosa, Full MHB (P. aeruginosa PAO1): > 64 µg/mL
MIC P. aeruginosa PAO1 (P. aeruginosa PAO1; 12.5% MH pH 7.4): 16 µg/mL
MIC P. aeruginosa PAO1 (P. aeruginosa PAO1; full MH pH 7.4): >64 µg/mL
MIC S. aureus, 12.5% MHB (S. aureus COL (MRSA)): >64 / 64 μg/mL
MIC S. aureus, Full MHB (S. aureus COL (MRSA)): >64 / 64 μg/mL
MIC S. aureus COL (MRSA) (S. aureus COL (MRSA); 12.5% MH pH 7.4): 64 µg/mL
MIC S. aureus COL (MRSA) (S. aureus COL (MRSA); full MH pH 7.4): >64 µg/mL
MIC E. coli, 12.5% MHB (E. coli W3110): 2 µg/mL
MIC E. coli, Full MHB (E. coli W3110): 16 µg/mL
MIC E. coli W3110 (E. coli W3110; 12.5% MH pH 7.4): 2 µg/mL
MIC E. coli W3110 (E. coli W3110; full MH pH 7.4): 16 µg/mL
MIC A. baumannii, 12.5% MHB (A. baumannii ATCC19606): 8 µg/mL
MIC A. baumannii, Full MHB (A. baumannii ATCC19606): 64 µg/mL
MIC A. baumannii ATCC19606 (A. baumannii ATCC19606; 12.5% MH pH 7.4): 8 µg/mL
MIC A. baumannii ATCC19606 (A. baumannii ATCC19606; full MH pH 7.4): 64 µg/mL
MIC K. pneumoniae, 12.5% MHB (K. pneumoniae NCTC 418): 2 µg/mL
MIC K. pneumoniae, Full MHB (K. pneumoniae NCTC 418): 16 µg/mL
MIC K. pneumoniae NCTC418 (K. pneumoniae NCTC 418; 12.5% MH pH 7.4): 2 µg/mL
MIC K. pneumoniae NCTC418 (K. pneumoniae NCTC 418; full MH pH 7.4): 16 µg/mL
Haemolysis on hRBC, MHC (human red blood cells): >1000 µg/mL
MHC human red blood cells (human red blood cells): >1000 µg/mL

VDKPPYLPRPRPPRRIYNR [sr6Cterm-Onc] (VDKPPYLPRPRPPRRIYNR-NH2; also: residues 14-19 stereorandomized (1:1 L/D mixture))
MIC P. aeruginosa, 12.5% MHB (P. aeruginosa PAO1): 4 µg/mL
MIC P. aeruginosa, Full MHB (P. aeruginosa PAO1): 64 µg/mL
MIC P. aeruginosa PAO1 (P. aeruginosa PAO1; 12.5% MH pH 7.4): 4 µg/mL
MIC P. aeruginosa PAO1 (P. aeruginosa PAO1; full MH pH 7.4): 64 µg/mL
MIC S. aureus, 12.5% MHB (S. aureus COL (MRSA)): > 16 µg/mL
MIC S. aureus, Full MHB (S. aureus COL (MRSA)): > 64 µg/mL
MIC S. aureus COL (MRSA) (S. aureus COL (MRSA); 12.5% MH pH 7.4): >16 µg/mL
MIC S. aureus COL (MRSA) (S. aureus COL (MRSA); full MH pH 7.4): >64 µg/mL
MIC E. coli, 12.5% MHB (E. coli W3110): 1 µg/mL
MIC E. coli, Full MHB (E. coli W3110): 8 µg/mL
MIC E. coli W3110 (E. coli W3110; 12.5% MH pH 7.4): 1 µg/mL
MIC E. coli W3110 (E. coli W3110; full MH pH 7.4): 8 µg/mL
MIC A. baumannii, 12.5% MHB (A. baumannii ATCC19606): 4 µg/mL
MIC A. baumannii, Full MHB (A. baumannii ATCC19606): 32 µg/mL
MIC A. baumannii ATCC19606 (A. baumannii ATCC19606; 12.5% MH pH 7.4): 4 µg/mL
MIC A. baumannii ATCC19606 (A. baumannii ATCC19606; full MH pH 7.4): 32 µg/mL
MIC K. pneumoniae, 12.5% MHB (K. pneumoniae NCTC 418): 1 µg/mL
MIC K. pneumoniae, Full MHB (K. pneumoniae NCTC 418): 4 µg/mL
MIC K. pneumoniae NCTC418 (K. pneumoniae NCTC 418; 12.5% MH pH 7.4): 1 µg/mL
MIC K. pneumoniae NCTC418 (K. pneumoniae NCTC 418; full MH pH 7.4): 4 µg/mL
Haemolysis on hRBC, MHC (human red blood cells): >1000 µg/mL
MHC human red blood cells (human red blood cells): >1000 µg/mL

VDKPPYLPRPRPPRRIYNR [sr7Cterm-Onc] (VDKPPYLPRPRPPRRIYNR-NH2; also: residues 13-19 stereorandomized (1:1 L/D mixture))
MIC P. aeruginosa, 12.5% MHB (P. aeruginosa PAO1): 4 µg/mL
MIC P. aeruginosa, Full MHB (P. aeruginosa PAO1): 64 µg/mL
MIC P. aeruginosa PAO1 (P. aeruginosa PAO1; 12.5% MH pH 7.4): 4 µg/mL
MIC P. aeruginosa PAO1 (P. aeruginosa PAO1; full MH pH 7.4): 64 µg/mL
MIC S. aureus, 12.5% MHB (S. aureus COL (MRSA)): > 16 µg/mL
MIC S. aureus, Full MHB (S. aureus COL (MRSA)): > 64 µg/mL
MIC S. aureus COL (MRSA) (S. aureus COL (MRSA); 12.5% MH pH 7.4): >16 µg/mL
MIC S. aureus COL (MRSA) (S. aureus COL (MRSA); full MH pH 7.4): >64 µg/mL
MIC E. coli, 12.5% MHB (E. coli W3110): 1 µg/mL
MIC E. coli, Full MHB (E. coli W3110): 8 µg/mL
MIC E. coli W3110 (E. coli W3110; 12.5% MH pH 7.4): 1 µg/mL
MIC E. coli W3110 (E. coli W3110; full MH pH 7.4): 8 µg/mL
MIC A. baumannii, 12.5% MHB (A. baumannii ATCC19606): 4 µg/mL
MIC A. baumannii, Full MHB (A. baumannii ATCC19606): 32 µg/mL
MIC A. baumannii ATCC19606 (A. baumannii ATCC19606; 12.5% MH pH 7.4): 4 µg/mL
MIC A. baumannii ATCC19606 (A. baumannii ATCC19606; full MH pH 7.4): 32 µg/mL
MIC K. pneumoniae, 12.5% MHB (K. pneumoniae NCTC 418): 1 µg/mL
MIC K. pneumoniae, Full MHB (K. pneumoniae NCTC 418): 4 µg/mL
MIC K. pneumoniae NCTC418 (K. pneumoniae NCTC 418; 12.5% MH pH 7.4): 1 µg/mL
MIC K. pneumoniae NCTC418 (K. pneumoniae NCTC 418; full MH pH 7.4): 4 µg/mL
Haemolysis on hRBC, MHC (human red blood cells): >1000 µg/mL
MHC human red blood cells (human red blood cells): >1000 µg/mL

— paper PMC11571207, “Stereorandomized Oncocins with Preserved Ribosome Binding and Antibacterial Activity” (Journal of Medicinal Chemistry, 2024)
